From patent US20230054333A1, “Herbicide Combinations Comprising Glufosinate and Saflufenacil” (BASF SE, priority 2020, published 2023)

Columns and labels:
Conditions in all cases: visual scale 0 to 100, mean of three replications
Palmer amaranth = assay: Greenhouse post emergence treatment, visual herbicidal activity against Palmer amaranth; assay type: in vivo, Amaranthus palmeri
Source text: (§1) Synergism can be described as an interaction where the combined effect of two or more compounds is greater than the sum of the individual effects of each of the compounds. The presence of a synergistic effect in terms of percent control, between two mixing partners (X and Y) can be calculated using the Colby equation (Colby, S. R., 1967, Calculating Synergistic and Antagonistic Responses in Herbicide Combinations, Weeds, 15, 21-22):
(§2) When the observed combined control effect is greater than the expected (calculated) combined control effect (E), then the combined effect is synergistic.
(§3) Weeds included Palmer aamaranth (Amaranthus palmen) and crop plants included soybean (Glycine max) with glufosinate tolerance (Liberty Link, BASF) or glyphosate tolerance (Roundup Ready, Bayer). However, the herbicidal effect afforded by the compounds, mixtures or compositions is not limited to these species. The analysis of synergism or antagonism between the mixtures or compositions was determined using Colby's equation.
(§4) Pots with 0.3 L of volume were filled with soil (SunGro Horticulture, Agawam, MA 01001) to grow one plant per pot in the greenhouse until the desired developmental stage. […] During this time, the plants were tended, and their response to the individual treatments was evaluated. […]

LibertyLink Soybean = assay: Greenhouse post emergence treatment, visual herbicidal activity against LibertyLink soybean; assay type: in vivo, Glycine max
Source text: as §1, §2, §3, §4

Roundup Ready Soybean = assay: Greenhouse post emergence treatment, visual herbicidal activity against Roundup Ready soybean; assay type: in vivo, Glycine max
Source text: as §1, §2, §3, §4

Structure (SMILES)	Herbicidal activity against Palmer amaranth (2 DAT) Found (Palmer amaranth; Glufosinate 280 g ai/ha)	Herbicidal activity against LibertyLink Soybean (2 DAT) Found (LibertyLink Soybean; Glufosinate 280 g ai/ha)	Herbicidal activity against Roundup Ready Soybean (2 DAT) Found (Roundup Ready Soybean; Glufosinate 280 g ai/ha)	Herbicidal activity against Palmer amaranth (2 DAT) Found (Palmer amaranth; Saflufenacil 1 g ai/ha)	Herbicidal activity against LibertyLink Soybean (2 DAT) Found (LibertyLink Soybean; Saflufenacil 1 g ai/ha)	Herbicidal activity against Roundup Ready Soybean (2 DAT) Found (Roundup Ready Soybean; Saflufenacil 1 g ai/ha)
CP(=O)(O)CCC(N)C(=O)O (racemic) [Glufosinate, (2RS)-2-amino-4-[hydroxy(methyl)phosphinoyl]butyric acid]	20	5	35			
CC(C)N(C)S(=O)(=O)NC(=O)c1cc(-n2c(=O)cc(C(F)(F)F)n(C)c2=O)c(F)cc1Cl [Saflufenacil]				4	1	0
